The results in this text go back to ChEMBL document CHEMBL1201862, “PubChem BioAssay data set” (2004).

Assay [1] concerns the target Nuclear receptor subfamily 0 group B member 1 (Homo sapiens, UniProt P51843). In kind it is functional, cell-based.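 Note: HEK293T cells transfected with SF-1 and DAX-1 plus StAR promoter luciferase reporter.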
A further assay in a line: cells. In kind it is functional, cell-based.
Assay [2] concerns the target Fructose-bisphosphate aldolase (Mycobacterium tuberculosis, UniProt P9WQA3). The assay is described as follows: Fluorescence-based biochemical high throughput dose response assay for inhibitors of the fructose-bisphosphate aldolase (FBA) of M. tuberculosis. In kind it is functional.
The target of assay [3] is T1, Endoribonuclease toxin MazF (Escherichia coli K-12, UniProt P0AE70).
T1 sequence (P0AE70 whole entry): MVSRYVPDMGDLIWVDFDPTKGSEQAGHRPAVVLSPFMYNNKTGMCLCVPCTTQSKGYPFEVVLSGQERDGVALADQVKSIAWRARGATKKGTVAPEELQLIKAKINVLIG
Description: activation of MazEF endoribonuclease cleavage – biochemical, fluorescence, single-stranded RNA substrate, uHTS hits, dose response (AID 588481). In kind it is functional.

Assay [4] deals with Beta-lactamase (Salmonella choleraesuis (strain SC-B67), UniProt Q5J463).
Assay [5] has as its target Beta-lactamase (Pseudomonas aeruginosa, UniProt Q79MP6).
In a further assay the target is Beta Lactamase (Pseudomonas aeruginosa, UniProt Q932Y6).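 Note: confirmatory high-throughput screen measuring VIM-2 metallo-beta-lactamase inhibition by epi-absorbance in dose response.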
The target in assay [6] is T1, Endoribonuclease toxin MazF. The assay is described as follows: substrate-only fluorescence increase artefacts – biochemical, single-stranded RNase substrate, counter-screen for MazEF activator project, dose response (AID 588502). In kind it is functional.
In assay [7] the target is T2, Botulinum neurotoxin type A (Clostridium botulinum (strain Hall / ATCC 3502 / NCTC 13319 / Type A), UniProt P0DPI1). Description: Confirmatory FRET assay using full length substrates for Botulinum neurotoxin light chain A protease, with Powder Set01. In kind it is functional.
For assay [8], the target named is T2, Botulinum neurotoxin type A. Description: High-throughput multiplex microsphere dose response for inhibitors of toxin protease, specifically Botulinum neurotoxin light chain A protease, compounds from Powder Set 01. In kind it is functional, Clostridium botulinum A str. ATCC 3502. Particulars: read-out: EC50_MICROM.
Assay [9] has the same target. Description: High-throughput multiplex microsphere dose response for inhibitors of toxin protease, specifically Botulinum neurotoxin light chain A protease, compounds from Cherry Pick 01. In kind it is functional. Particulars: read-out: EC50_MICROM.
Another assay addresses Lethal factor (Bacillus anthracis, UniProt P15917). The assay is described as follows: High-throughput multiplex microsphere dose response for inhibitors of toxin protease, specifically Lethal Factor protease, compounds from Powder Set 01. To be noted: read-out: EC50_MICROM. In kind it is functional, Bacillus anthracis str. A2012.
Assay [10] addresses Botulinum neurotoxin type F (Clostridium botulinum, UniProt P30996). Description: High-throughput multiplex microsphere dose response for inhibitors of toxin protease, specifically Botulinum neurotoxin light chain F protease, compounds from Powder Set 01. In kind it is functional, Clostridium botulinum Bf. Particulars: read-out: EC50_MICROM.
A short description of assay [11]: cAMP pathway inhibition in counterscreen cell line – TR-FRET cAMP detection, counter-screen for MC4R biased antagonist project, dose response (AID 602305).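 Note: U2OS cells stimulated with forskolin near its EC80 as the cAMP inducer; potency is for inhibition of forskolin-stimulated cAMP signaling.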 In kind it is functional, cell-based.
A short description of assay [12]: reduction of Shn3 3'UTR-driven luciferase in osteoblasts – cell-based, Clone20 osteoblasts, firefly luciferase, cherry-picked, dose response (AID 624132).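 Note: firefly luciferase luminescence from reporter carrying the Shn3 3'UTR in osteoblasts.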 In kind it is functional.
Assay [13] can be described thus: loss of viability in HepG2 cells – cell-based, CellTiter-Glo, cherry-picked, cytotoxicity control for Shn3 inhibitor project, dose response (AID 624134). In kind it is functional.
Another assay concerns the target Melanocortin receptor 4 (Homo sapiens, UniProt P32245). The assay is described as follows: inhibitors of MC4R cAMP signaling – cell-based, TR-FRET, biased antagonists, dose response (AID 602298).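 Note: antagonist potency against agonist-stimulated cAMP production.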 In kind it is functional.
Assay [14] in a line: non-specific 3'UTR reporter inhibition in Clone20-Shn3RL – cell-based, Renilla luciferase, cherry-picked, counter-screen for Shn3 inhibitor project, dose response (AID 624133). In kind it is functional.
The next assay concerns the target Beta-galactosidase (Escherichia coli, UniProt Q8VNN2). The assay is described as follows: Dose response counterscreen for EBI2 assay utilizing the enzyme, b-galactosidase. In kind it is functional. A general note: Counterscreens check selectivity or assay interference.

A word on the IC50: it is the concentration needed to halve the response being measured. As a reminder, the AC50 is the concentration at which the activity in the assay is half-maximal.

The structures appear in SMILES notation. The source made the active and inactive calls. Unless noted, no cut-off for these calls is given here.

T2 sequence (P0DPI1 2-448 limits assumed): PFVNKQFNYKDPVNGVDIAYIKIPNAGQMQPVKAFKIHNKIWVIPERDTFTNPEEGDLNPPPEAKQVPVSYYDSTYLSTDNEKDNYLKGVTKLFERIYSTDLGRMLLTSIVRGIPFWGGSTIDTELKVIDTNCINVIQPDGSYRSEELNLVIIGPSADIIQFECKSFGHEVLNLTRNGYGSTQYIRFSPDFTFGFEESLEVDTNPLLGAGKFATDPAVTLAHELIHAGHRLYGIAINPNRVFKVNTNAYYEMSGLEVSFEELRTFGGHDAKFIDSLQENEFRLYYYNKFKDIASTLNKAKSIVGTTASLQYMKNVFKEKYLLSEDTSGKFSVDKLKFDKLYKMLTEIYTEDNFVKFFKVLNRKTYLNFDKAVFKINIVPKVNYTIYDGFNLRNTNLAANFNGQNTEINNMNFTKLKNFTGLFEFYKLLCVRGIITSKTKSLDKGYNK
Sequence of Melanocortin receptor 4 (P32245 whole entry): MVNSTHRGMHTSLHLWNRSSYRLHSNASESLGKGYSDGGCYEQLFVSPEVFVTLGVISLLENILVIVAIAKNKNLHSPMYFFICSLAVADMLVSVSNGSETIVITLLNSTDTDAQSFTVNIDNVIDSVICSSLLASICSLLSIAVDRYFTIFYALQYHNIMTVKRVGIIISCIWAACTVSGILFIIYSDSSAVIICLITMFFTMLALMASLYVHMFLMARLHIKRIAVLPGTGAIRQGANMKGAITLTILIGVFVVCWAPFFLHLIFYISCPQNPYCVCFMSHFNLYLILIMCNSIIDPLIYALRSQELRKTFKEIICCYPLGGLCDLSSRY
Sequence of Botulinum neurotoxin type F (P30996 1-436 limits assumed): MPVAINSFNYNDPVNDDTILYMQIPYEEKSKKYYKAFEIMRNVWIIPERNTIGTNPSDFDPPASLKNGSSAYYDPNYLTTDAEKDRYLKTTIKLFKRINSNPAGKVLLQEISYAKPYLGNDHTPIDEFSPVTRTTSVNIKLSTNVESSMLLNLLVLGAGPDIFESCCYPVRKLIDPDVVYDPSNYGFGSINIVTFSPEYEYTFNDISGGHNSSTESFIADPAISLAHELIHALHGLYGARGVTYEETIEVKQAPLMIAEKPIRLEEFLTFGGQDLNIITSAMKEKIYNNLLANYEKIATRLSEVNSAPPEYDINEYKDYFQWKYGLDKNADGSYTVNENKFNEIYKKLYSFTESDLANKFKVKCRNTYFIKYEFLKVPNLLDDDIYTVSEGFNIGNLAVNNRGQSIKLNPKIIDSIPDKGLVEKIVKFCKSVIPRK
Sequence of Beta-galactosidase (Q8VNN2 whole entry): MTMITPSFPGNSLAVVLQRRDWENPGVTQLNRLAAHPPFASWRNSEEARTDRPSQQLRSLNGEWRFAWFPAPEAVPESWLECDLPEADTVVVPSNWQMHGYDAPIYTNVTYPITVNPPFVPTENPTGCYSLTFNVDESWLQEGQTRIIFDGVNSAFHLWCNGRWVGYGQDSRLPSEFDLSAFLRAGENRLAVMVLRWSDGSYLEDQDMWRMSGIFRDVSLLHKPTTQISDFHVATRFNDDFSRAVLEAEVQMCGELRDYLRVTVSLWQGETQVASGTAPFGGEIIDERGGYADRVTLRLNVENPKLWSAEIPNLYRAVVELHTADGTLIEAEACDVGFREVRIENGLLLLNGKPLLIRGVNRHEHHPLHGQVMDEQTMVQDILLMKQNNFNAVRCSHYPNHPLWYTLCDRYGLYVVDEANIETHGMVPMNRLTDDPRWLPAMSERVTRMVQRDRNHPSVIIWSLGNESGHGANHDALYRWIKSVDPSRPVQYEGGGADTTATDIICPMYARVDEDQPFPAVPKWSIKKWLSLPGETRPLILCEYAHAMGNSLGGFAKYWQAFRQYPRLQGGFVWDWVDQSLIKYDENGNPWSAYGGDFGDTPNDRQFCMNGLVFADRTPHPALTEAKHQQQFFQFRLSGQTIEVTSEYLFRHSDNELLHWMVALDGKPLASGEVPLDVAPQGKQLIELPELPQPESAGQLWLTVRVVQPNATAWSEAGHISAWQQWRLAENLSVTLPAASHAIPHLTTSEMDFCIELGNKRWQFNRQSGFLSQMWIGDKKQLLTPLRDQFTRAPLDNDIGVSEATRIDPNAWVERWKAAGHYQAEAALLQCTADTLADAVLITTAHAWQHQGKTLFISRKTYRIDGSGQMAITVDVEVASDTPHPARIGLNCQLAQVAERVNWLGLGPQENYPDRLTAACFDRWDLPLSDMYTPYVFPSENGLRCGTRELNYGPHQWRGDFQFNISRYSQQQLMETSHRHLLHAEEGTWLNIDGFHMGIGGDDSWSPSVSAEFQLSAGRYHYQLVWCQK
Sequence of Nuclear receptor subfamily 0 group B member 1 (P51843 whole entry): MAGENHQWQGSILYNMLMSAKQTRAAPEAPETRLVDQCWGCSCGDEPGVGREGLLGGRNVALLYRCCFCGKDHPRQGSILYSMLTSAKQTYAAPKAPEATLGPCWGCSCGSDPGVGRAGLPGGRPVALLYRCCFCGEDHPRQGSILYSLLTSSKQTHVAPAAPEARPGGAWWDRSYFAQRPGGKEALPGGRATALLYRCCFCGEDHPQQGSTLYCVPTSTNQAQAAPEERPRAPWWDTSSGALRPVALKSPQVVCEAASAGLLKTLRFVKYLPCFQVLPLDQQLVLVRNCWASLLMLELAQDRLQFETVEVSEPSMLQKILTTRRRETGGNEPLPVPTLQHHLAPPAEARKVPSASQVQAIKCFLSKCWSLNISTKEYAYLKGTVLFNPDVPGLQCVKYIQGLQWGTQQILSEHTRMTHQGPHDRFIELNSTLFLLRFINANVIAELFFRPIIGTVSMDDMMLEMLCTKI
Sequence of Beta Lactamase (Q932Y6 whole entry): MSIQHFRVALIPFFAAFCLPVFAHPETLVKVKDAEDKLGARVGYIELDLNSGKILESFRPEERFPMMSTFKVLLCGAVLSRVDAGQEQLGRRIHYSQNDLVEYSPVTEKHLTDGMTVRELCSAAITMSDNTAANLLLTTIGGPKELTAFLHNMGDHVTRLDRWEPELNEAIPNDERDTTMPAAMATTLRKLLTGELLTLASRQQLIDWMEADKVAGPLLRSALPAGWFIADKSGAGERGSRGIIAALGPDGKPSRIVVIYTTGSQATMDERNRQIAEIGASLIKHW
Sequence of Lethal factor (P15917 whole entry): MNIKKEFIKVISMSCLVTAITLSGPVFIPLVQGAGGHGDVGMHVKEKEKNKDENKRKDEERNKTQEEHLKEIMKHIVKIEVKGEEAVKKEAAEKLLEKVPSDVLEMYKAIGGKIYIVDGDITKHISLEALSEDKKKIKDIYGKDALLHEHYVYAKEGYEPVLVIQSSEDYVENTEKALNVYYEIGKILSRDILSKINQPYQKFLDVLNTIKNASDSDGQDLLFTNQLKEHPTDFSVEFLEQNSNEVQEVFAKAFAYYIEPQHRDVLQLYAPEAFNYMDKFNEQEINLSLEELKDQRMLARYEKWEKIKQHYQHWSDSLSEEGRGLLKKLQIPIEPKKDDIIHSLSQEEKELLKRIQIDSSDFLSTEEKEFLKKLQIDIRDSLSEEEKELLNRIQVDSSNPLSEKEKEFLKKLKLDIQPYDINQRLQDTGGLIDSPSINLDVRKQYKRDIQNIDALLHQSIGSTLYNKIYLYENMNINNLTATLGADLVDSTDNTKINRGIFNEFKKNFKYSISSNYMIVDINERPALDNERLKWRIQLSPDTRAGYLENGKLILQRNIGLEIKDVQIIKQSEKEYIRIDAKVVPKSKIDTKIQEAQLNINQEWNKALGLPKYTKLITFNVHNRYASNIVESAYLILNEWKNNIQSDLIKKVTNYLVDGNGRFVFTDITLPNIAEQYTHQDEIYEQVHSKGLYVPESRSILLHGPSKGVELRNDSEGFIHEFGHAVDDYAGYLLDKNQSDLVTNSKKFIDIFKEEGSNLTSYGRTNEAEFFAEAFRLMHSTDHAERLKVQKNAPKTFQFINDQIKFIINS
Sequence of Fructose-bisphosphate aldolase (P9WQA3 whole entry): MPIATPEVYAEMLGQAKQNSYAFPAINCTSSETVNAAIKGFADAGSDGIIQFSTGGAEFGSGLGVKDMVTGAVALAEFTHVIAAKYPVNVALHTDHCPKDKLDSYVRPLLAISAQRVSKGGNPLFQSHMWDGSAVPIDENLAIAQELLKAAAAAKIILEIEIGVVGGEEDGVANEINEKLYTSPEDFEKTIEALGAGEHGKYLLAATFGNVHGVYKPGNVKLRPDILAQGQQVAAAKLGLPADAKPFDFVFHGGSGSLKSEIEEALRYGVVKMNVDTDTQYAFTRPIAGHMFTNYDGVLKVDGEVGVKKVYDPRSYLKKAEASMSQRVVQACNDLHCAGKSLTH
Sequence of Beta-lactamase (Salmonella choleraesuis (strain SC-B67), UniProt Q5J463) (Q5J463 whole entry): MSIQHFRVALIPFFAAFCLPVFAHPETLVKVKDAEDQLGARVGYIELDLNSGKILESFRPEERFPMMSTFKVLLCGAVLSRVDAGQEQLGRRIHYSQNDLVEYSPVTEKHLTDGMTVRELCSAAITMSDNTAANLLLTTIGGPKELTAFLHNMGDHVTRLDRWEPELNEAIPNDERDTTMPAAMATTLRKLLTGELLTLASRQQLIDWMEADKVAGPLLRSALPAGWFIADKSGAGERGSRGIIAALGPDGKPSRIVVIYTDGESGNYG
Sequence of Beta-lactamase (Pseudomonas aeruginosa, UniProt Q79MP6) (Q79MP6 whole entry): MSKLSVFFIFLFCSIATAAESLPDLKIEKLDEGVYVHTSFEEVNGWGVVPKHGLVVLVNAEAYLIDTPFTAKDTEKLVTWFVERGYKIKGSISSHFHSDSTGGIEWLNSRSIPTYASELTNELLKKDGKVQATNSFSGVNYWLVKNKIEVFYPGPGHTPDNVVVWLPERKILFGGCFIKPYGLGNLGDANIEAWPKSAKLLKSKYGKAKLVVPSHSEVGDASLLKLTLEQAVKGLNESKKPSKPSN

For the compound `CC1CCc2sc(C(=O)NC(C)C3CCCO3)cc2C1` (centres undefined), the IC50 (in [1]; in the assay “cells”) was > 67.5 µM (inactive) each time.

As for `COc1ccc2oc(=O)c(C(=O)NCc3ccccn3)cc2c1`, the IC50 in assay [2] was 1.53 µM (active).

With `Oc1ccc2ccccc2c1-c1sc(Nc2ccccc2)n[n+]1-c1ccc(F)cc1`, the EC50 in [3] and in assay [6] was > 99 µM (inactive) each time. The IC50 at Beta-lactamase [4] is 23.7 µM (inactive); at Beta-lactamase [5] it was 46.8 µM (inactive); on Beta Lactamase, 32 µM (inactive).

On to `O=C(Nc1ccc2nc(-c3cccs3)c(-c3cccs3)nc2c1)N1CCOCC1`, for which the EC50 in [7] was 0.4 µM (active); in assay [8], 5.8 µM (active); in assay [9] it was 15.5 µM (active); on Lethal factor, 7.6 µM (active); in assay [10], 9.6 µM (active).

As to `O=C(CSc1c2c(nc3ccc(Cl)cc13)CCCC2)N1CCN(C(=O)c2ccco2)CC1`, the IC50 (in assay [11]; at Melanocortin receptor 4) was > 64.6 µM (inactive) in each case. For the same compound, the figures for the AC50 in assay [12], in [13] and in assay [14] were 3.75 µM (active), 65.3 µM (active) and 11.8 µM (active), respectively.

Turning to `CN(Cc1ccccc1)C(=O)COc1ccc2ccccc2c1`, at Beta-galactosidase, the IC50 is > 80 µM (inactive).
